Data on six molecules can be found in US8436012B2, “Imidazopyridin-2-one derivatives” (Daiichi Sankyo Company, Limited, priority 2008, dated 2013).

Structures are written as SMILES.

Test [1] deals with WM-266-4 cells. Nature of the test: Cell Proliferation Inhibitory Test. The class given is cell-based. The following applies: Homo sapiens, 72 h, cultured three days with test compound, MTT, read-out: 50% cell proliferation inhibitory activity (GI50 value). A digest of the protocol:
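Cells cultured overnight, then exposed to serially diluted compound for three days; cell amount read by MTT. GI50 solved from 100×[(T−T0)/(C−T0)]=50, with T0 the value at time of compound addition and C the untreated three-day control.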

The target of test [2] is T1, human mTOR (Homo sapiens, UniProt P42345).
T1 construct: the portion corresponding to 1362-2549aa at the C terminus of human mTOR; made in house
T1 sequence (P42345 1362-2549): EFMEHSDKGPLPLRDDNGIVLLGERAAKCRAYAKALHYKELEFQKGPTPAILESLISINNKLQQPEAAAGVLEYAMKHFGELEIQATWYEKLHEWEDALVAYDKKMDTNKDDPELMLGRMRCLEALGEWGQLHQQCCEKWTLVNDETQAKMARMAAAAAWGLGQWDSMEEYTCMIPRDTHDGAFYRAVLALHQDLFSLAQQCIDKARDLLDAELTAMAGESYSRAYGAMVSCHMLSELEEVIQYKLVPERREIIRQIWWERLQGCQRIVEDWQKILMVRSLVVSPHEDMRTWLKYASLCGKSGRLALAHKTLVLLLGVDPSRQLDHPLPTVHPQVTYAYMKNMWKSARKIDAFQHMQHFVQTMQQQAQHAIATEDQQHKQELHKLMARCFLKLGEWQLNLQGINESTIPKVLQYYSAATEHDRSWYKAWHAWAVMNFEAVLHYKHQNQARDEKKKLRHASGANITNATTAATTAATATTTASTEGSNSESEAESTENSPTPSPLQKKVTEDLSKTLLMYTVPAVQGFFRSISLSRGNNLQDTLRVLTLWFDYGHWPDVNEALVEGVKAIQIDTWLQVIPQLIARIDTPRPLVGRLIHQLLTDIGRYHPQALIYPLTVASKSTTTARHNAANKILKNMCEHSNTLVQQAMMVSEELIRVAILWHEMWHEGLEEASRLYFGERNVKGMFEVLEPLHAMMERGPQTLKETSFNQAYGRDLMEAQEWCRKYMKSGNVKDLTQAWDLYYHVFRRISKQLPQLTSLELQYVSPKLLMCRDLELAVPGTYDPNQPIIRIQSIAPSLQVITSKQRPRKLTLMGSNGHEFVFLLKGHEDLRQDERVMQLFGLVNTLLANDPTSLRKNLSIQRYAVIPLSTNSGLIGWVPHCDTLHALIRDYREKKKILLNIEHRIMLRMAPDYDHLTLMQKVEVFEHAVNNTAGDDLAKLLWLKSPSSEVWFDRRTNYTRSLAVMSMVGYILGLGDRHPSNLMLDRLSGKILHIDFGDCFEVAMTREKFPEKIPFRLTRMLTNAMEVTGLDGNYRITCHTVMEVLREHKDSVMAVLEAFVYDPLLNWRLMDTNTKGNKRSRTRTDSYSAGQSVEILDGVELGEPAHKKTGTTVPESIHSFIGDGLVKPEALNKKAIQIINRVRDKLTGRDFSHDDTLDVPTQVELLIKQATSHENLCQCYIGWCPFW
Kind of test: mTOR Kinase Activity Inhibition Test. It counts as biochemical. The following applies: His-tagged mTOR (1362C), biotinylated peptide substrate, ATP, 3 hours at room temperature, fluorescence resonance energy transfer 665 nm/620 nm; read-out: IC50 value of mTOR enzyme inhibitory activity. A digest of the protocol:
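Purified His-tagged human mTOR (1362–2549aa, from HEK293) was used with biotinylated peptide (8 μg/mL in enzyme solution) in HEPES pH 7.5 with 20 mM MnCl2. Compounds were diluted in 20 μM ATP solution, and the reaction ran 3 h at RT. Phospho-S6K(Thr389) HTRF was read as the 665/620 nm ratio, and IC50 came from % inhibition versus controls.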

As usually defined, the IC50 is the point on the concentration scale where inhibition reaches its midpoint.

Turning to `Cc1nc2[nH]c(=O)n(C[C@H]3CC[C@@H](O)CO3)c2cc1-c1cnc2[nH]ccc2c1` [Example 149, 2,6-Anhydro-1,3,4-trideoxy-1-[5-methyl-2-oxo-6-(1H-pyrrolo[2,3-b]pyridin-5-yl)-2,3-dihydro-1H-imidazo[4,5-b]pyridin-1-yl]-L-threo-hexitol], the GI50 in test [1] is less than 3000 nM. In addition, the 50% inhibitory concentration (IC50) in test [2] is less than 50 nM.
For the molecule `Cc1c[nH]c2ncc(-c3cnc4[nH]c(=O)n(C[C@H]5C[C@@H](O)CCO5)c4c3)c(C)c12` [Example 150, 2,6-Anhydro-1,3,5-trideoxy-1-[6-(3,4-dimethyl-1H-pyrrolo[2,3-b]pyridin-5-yl)-2-oxo-2,3-dihydro-1H-imidazo[4,5-b]pyridin-1-yl]-L-threo-hexitol], the GI50 in test [1] was less than 3000 nM. The IC50 in test [2] was less than 50 nM.
Consider `CO[C@H]1CCO[C@@H](Cn2c(=O)[nH]c3ncc(-c4cnc5[nH]cc(C)c5c4C)cc32)C1` [Example 151, 2,6-Anhydro-1,3,5-trideoxy-1-[6-(3,4-dimethyl-1H-pyrrolo[2,3-b]pyridin-5-yl)-2-oxo-2,3-dihydro-1H-imidazo[4,5-b]pyridin-1-yl]-4-O-methyl-L-threo-hexitol], for which, in test [1], the GI50 is less than 3000 nM. The IC50 in test [2] was less than 50 nM.
For `CO[C@H]1CCO[C@@H](Cn2c(=O)[nH]c3ncc(-c4cnc5[nH]cc(Cl)c5c4C)cc32)C1` [Example 152, 2,6-Anhydro-1-[6-(3-chloro-4-methyl-1H-pyrrolo[2,3-b]pyridin-5-yl)-2-oxo-2,3-dihydro-1H-imidazo[4,5-b]pyridin-1-yl]-1,3,5-trideoxy-4-O-methyl-L-threo-hexitol], the GI50 in test [1] is less than 3000 nM. For the same molecule, the IC50 in test [2] was less than 50 nM.
Regarding `COCC1COC[C@H](Cn2c(=O)[nH]c3ncc(-c4cnc5[nH]ccc5c4C)cc32)O1` (stereo partly drawn) [Example 153, 1-{[(2S)-6-(Methoxymethyl)-1,4-dioxan-2-yl]methyl}-6-(4-methyl-1H-pyrrolo[2,3-b]pyridin-5-yl)-1,3-dihydro-2H-imidazo[4,5-b]pyridin-2-one], the GI50 in test [1] was less than 3000 nM. Besides, in test [2], the IC50 was less than 50 nM.
In the same order, the values of `O=c1[nH]c2nc(Cl)c(-c3cnc4[nH]ccc4c3)cc2n1C[C@H]1COCCO1` [Example 155, 5-Chloro-1-[(2S)-1,4-dioxan-2-ylmethyl]-6-(1H-pyrrolo[2,3-b]pyridin-5-yl)-1,3-dihydro-2H-imidazo[4,5-b]pyridin-2-one] are less than 3000 nM and less than 50 nM.
